Experimental findings from patent US6403575B1, “3-Pyridyl enantiomers and their use as analgesics” (Abbott Laboratories, priority 1996, dated 2002) are described below.

Data set [1] concerns the target T1, neuronal nicotinic acetylcholine receptors (Rattus norvegicus, UniProt P09483+P12390).
T1 construct: crude synaptic membrane preparations from whole rat brain; from tissue; host or cells: whole rat brain, crude synaptic membranes
Description: [3H]-cytisine binding to neuronal nicotinic acetylcholine receptors, whole rat brain membranes. The conditions noted are these: [3H]-cytisine 1.25 nM, whole rat brain membranes; read-out: [3H] CYT Ki. As for the experimental part:
Protocol for Determination of Nicotinic Acetylcholine Channel Receptor Binding Potencies of Ligands
Binding of [^3H]-cytisine ([^3H]-CYT) to neuronal nicotinic acetylcholine receptors was accomplished using crude synaptic membrane preparations from whole rat brain (Pabreza et al., Molecular Pharmacol., 1990, 39:9). Washed membranes were stored at −80° C. prior to use. Frozen aliquots were slowly thawed and resuspended in 20 volumes of buffer (containing: 120 mM NaCl, 5 mM KCl, 2 mM MgCl2, 2 mM CaCl2 and 50 mM Tris-Cl, pH 7.4 @4° C.). After centrifuging at 20,000×g for 15 minutes, the pellets were resuspended in 30 volumes of buffer. Homogenate (containing 125-150 μg protein) was added to triplicate tubes containing concentrations of test compound and [^3H]-CYT (1.25 nM) in a final volume of 500 μL. Samples were incubated for 60 minutes at 4° C., then rapidly filtered through Whatman GF/B filters presoaked in 0.5% polyethyleneimine using 3×4 mL of ice-cold buffer. The filters are counted in 4 mL of Ecolume® (ICN). Nonspecific binding was determined in the presence of 10 μM (−)-nicotine and values were expressed as a percentage of total binding.

The target of data set [2] is T2, peripheral ganglionic receptors (Homo sapiens, UniProt P30926+P32297).
T2 construct: Cells of the IMR-32 human neuroblastoma clonal cell line (ATCC, Rockville, Md.); host or cells: IMR-32 human neuroblastoma cells
In words: 86Rb+ flux activation in IMR-32 human neuroblastoma cells. It is filed as cell-based. To be noted: 1 μM compound, % of maximum response to (S)-nicotine. The method, then: Protocol for the Determination of Ability of Nicotinic Acetylcholine Receptor Ligands to Activate Peripheral Ganglionic Receptors
Cells of the IMR-32 human neuroblastoma clonal cell line (ATCC, Rockville, Md.) were maintained in a log phase of growth according to established procedures. Experimental cells were seeded at a density of 500,000 cells/mL into a 24-well tissue culture dish. Plated cells were allowed to proliferate for at least 48 hours before loading with 2 μCi/mL of ^86Rb^+ (35 Ci/mmol) overnight at 37° C. The ^86Rb^+ efflux assays were performed according to previously published protocols (Lukas, R. J., J. Pharmacol. Exp. Ther., 265: 294-302, 1993) except serum-free Dulbecco's Modified Eagle's Medium was used during the ^86Rb^+ loading, rinsing, and agonist-induced efflux steps. Data reflect the activation of ^86Rb^+ flux at a concentration of 1 μM, and reflect the response as a percentage of the maximum response elicited by (S)-nicotine.

Another data set deals with mice. In words: Mouse Hot Plate Paradigm. The conditions noted are these: 30 minutes prior to testing, 55° C.; for minimal effective dose: ip, 0.5 h, i.p., read-out: MED Hot plate model (μmol/kg, i.p.). In kind it is in vivo. Also on record: key to MED Hot plate model (μmol/kg, i.p.): NS = no significant effect observed relative to saline controls at the doses tested.

Molecules are shown by their SMILES. Structures can show the parent of a compound that is named as a salt.

T1 sequence (P09483 31-630): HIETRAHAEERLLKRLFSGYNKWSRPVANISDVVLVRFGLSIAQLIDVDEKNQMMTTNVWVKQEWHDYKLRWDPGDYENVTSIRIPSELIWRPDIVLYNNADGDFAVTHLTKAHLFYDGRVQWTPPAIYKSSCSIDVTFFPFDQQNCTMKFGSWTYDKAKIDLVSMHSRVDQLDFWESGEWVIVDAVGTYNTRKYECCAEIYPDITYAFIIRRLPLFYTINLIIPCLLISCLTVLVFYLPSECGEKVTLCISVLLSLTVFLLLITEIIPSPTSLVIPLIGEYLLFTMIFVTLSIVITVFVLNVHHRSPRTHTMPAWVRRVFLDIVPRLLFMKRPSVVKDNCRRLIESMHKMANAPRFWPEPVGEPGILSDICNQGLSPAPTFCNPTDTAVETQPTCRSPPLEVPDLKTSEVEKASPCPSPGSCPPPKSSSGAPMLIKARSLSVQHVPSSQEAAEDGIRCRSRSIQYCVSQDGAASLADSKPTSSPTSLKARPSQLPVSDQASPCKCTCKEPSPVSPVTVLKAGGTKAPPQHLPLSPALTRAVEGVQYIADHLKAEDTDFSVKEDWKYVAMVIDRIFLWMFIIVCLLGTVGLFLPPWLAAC
T1 sequence (P12390 25-500): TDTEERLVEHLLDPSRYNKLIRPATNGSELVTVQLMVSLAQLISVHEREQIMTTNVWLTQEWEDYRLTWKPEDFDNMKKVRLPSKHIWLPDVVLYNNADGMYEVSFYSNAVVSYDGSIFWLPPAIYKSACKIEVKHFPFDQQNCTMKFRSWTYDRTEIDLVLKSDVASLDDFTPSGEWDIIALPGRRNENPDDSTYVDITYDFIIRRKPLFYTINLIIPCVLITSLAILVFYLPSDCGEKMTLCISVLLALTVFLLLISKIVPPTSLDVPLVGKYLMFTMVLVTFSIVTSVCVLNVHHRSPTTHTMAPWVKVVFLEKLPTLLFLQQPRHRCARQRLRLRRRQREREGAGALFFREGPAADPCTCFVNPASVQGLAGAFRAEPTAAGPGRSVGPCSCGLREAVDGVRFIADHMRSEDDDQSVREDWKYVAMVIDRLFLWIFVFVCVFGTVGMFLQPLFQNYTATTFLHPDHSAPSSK
T2 sequence (P32297 32-505): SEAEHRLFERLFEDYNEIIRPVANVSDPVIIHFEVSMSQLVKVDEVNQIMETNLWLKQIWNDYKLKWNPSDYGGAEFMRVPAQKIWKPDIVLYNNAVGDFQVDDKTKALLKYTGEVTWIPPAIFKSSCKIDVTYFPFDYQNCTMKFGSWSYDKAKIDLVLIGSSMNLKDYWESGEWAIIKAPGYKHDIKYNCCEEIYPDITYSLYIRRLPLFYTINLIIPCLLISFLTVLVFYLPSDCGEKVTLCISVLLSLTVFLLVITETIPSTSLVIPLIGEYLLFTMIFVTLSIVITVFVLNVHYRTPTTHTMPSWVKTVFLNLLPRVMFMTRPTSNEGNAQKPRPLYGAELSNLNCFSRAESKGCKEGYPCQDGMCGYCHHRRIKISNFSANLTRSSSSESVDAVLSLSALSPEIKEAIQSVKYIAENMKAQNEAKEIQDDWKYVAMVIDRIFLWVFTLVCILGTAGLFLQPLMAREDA
T2 sequence (P30926 22-498): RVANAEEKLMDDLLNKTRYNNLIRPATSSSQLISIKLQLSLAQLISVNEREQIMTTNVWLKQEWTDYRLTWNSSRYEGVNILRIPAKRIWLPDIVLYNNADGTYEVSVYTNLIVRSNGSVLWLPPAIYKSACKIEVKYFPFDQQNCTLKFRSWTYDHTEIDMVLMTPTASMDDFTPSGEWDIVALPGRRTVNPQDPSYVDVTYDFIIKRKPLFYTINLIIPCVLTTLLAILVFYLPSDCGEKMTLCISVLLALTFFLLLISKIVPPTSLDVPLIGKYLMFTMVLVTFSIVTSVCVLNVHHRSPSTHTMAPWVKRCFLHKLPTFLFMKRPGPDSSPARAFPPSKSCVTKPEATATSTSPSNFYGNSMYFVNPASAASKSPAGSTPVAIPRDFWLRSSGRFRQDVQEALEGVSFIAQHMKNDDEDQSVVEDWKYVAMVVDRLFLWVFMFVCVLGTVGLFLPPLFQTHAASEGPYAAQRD

Take `Cc1ccc(OC[C@H]2CCN2)cn1` (as salt: HCl) [Example 115, 6-Methyl-3-(2-(R)-azetidinylmethoxy)pyridine]: the melting point lay within 134 to 136 °C. As to `Fc1cncc(OC[C@@H]2CCN2)c1` (as salt: hydrochloride) [Example 10, 5-((2S)-Azetidinylmethyloxy)-3-fluoropyridine dihydrochloride], the melting point was 165 to 167 °C. In the case of `Brc1cncc(OC[C@@H]2CCN2)c1` (as salt: hydrochloride) [Example 12, 5-((2S)-Azetidinylmethyloxy)-3-bromopyridine dihydrochloride], the melting point fell in the range of 163 to 165 °C. In the case of `Clc1cc(OC[C@@H]2CCN2)cnc1Cl` (as salt: hydrochloride) [Example 15, 5-((2S)-azetidinylmethoxy)-2,3-dichloropyridine hydrochloride], the melting point was in the range of 181 to 182 °C.

`Clc1cc(OC[C@H]2CCN2)cnc1Cl` (as salt: hydrochloride) [Example 16, 5-((2R)-azetidinylmethoxy)-2,3-dichloropyridine hydrochloride] registered a melting point of 166 to 168 °C. Same read-out and setting: with `Clc1ncc(OC[C@@H]2CCN2)cc1Br` (as salt: hydrochloride) [Example 17, 5-((2S)-azetidinylmethoxy)-3-bromo-2-chloropyridine hydrochloride] the figure was 168 to 169 °C; with `Clc1ncc(OC[C@H]2CCN2)cc1Br` (as salt: hydrochloride) [Example 18, 5-((2R)-azetidinylmethoxy)-3-bromo-2-chloropyridine hydrochloride], 175 °C.

`Cc1ccc(OC[C@@H]2CCN2)cn1` (as salt: hydrochloride) [Example 20, 5-((2S)-Azetidinylmethyloxy)-2-methylpyridine dihydrochloride] came in with a melting point of 141 to 144 °C. Compound `C=Cc1cncc(OC[C@@H]2CCN2)c1` (as salt: hydrochloride) [Example 22, 5-Vinyl-3-((2S)-Azetidinylmethyloxy)lpyridine dihydrochloride] had a melting point of 88 to 90 °C. Compound `CCCc1cncc(OC[C@@H]2CCN2)c1` (as salt: hydrochloride) [Example 24, 5-Propyl-3-((2S)-azetidinylmethyloxy)lpyridine hydrochloride] registered a melting point of 79 to 80 °C.

As for `C=Cc1cc(OC[C@@H]2CCN2)cnc1Cl` (as salt: hydrochloride) [Example 26, 2-Chloro-3-vinyl-5-((2S)-azetidinylmethoxy)pyridine hydrochloride], the melting point was 121 °C (dec.). For `CCc1cc(OC[C@@H]2CCN2)cnc1Cl` (as salt: hydrochloride) [Example 27, 2-Chloro-3-ethyl-5-((2S)-azetidinylmethoxy)pyridine hydrochloride], the melting point was in the range of 102 to 104 °C. `CCCc1cc(OC[C@@H]2CCN2)cnc1Cl` (as salt: hydrochloride) [Example 28, 2-Chloro-3-propyl-5-((2S)-azetidinylmethoxy)pyridine hydrochloride] had a melting point of 148 to 150 °C. Compound `CCCCc1cc(OC[C@@H]2CCN2)cnc1Cl` (as salt: hydrochloride) [Example 29, 3-Butyl-2-chloro-5-((2S)-azetidinylmethoxy)pyridine hydrochloride] came in with a melting point of 88 to 90 °C. For `C#Cc1cc(OC[C@@H]2CCN2)cnc1Cl` (as salt: hydrochloride) [Example 30, 2-Chloro-3-ethynyl-5-((2S)-azetidinylmethoxy)pyridine hydrochloride], the melting point was 90 °C (dec.). As for `C=Cc1cc(OC[C@@H]2CCN2)cnc1C` (as salt: hydrochloride) [Example 35, 6-Methyl-5-vinyl-3-((2S)-azetidinylmethoxy)pyridine hydrochloride], the melting point fell in the range of 154 to 155 °C. For the compound `CCc1cc(OC[C@@H]2CCN2)cnc1C` (as salt: hydrochloride) [Example 36, 6-Ethyl-6-methyl-3-((2S)-azetidinylmethoxy)pyridine hydrochloride], the melting point lay in the range of 150 to 153 °C.

The compound `Fc1cncc(OC[C@H]2CCN2)c1` (as salt: salt) [Example 11, 5-((2R)-Azetidinylmethyloxy)-3-fluoropyridine dibenzoate] came in with a melting point of 163 to 165 °C.

As for `Cc1cc(OC[C@@H]2CCN2)cnc1F` (as salt: salt) [Example 32, 5-((2S)-azetidinylmethoxy)-3-methyl-2-fluoropyridine benzoate], the melting point lay in the range of 104 to 108 °C. Compound `Fc1ncc(OCC2CCN2)cc1Cl` (centres unmarked) (as salt: tosylate) [Example 33, 5-((29)-azetidinylmethoxy)-3-chloro-2-fluoropyridine tosylate] gave a melting point of 99 °C. Same read-out and setting: with `Fc1ccc(OC[C@@H]2CCN2)c(F)n1` (as salt: tosylate) [Example 116, 2.6-Difluoro-3-(2-(S)-azetidinylmethoxy)pyridine tosylate] the figure was 140 to 143 °C. In turn, `Fc1ncc(OC[C@H]2CCN2)cc1Br` (as salt: tosylate) [Example 125, 5-bromo-6-fluoro-3-(2-(R)-azetidinylmethoxy)pyridine] displayed a melting point of 238 to 240 °C. Take `CCc1cc(OC[C@@H]2CCN2)cnc1F` (as salt: tosylate) [Example 126, 5-ethyl-6-fluoro-3-(2-(S)-azetidinylmethoxy)pyridine]: the melting point fell in the range of 106 to 108 °C.

For the compound `Fc1cncc(OC[C@H]2CCN2)c1` [Example 11, 5-((2R)-Azetidinylmethyloxy)-3-fluoropyridine dibenzoate], in data set [1], the Ki worked out at 340 pM. In addition, the “IMR-32 % maximal nicotine response at 1 μM Cmpd conc'n” value in data set [2] is given as 31%. In the data set on mice, the “MED Hot plate model (μmol/kg, i.p.)” value is “NS”. `CCCCc1cc(OC[C@@H]2CCN2)cnc1Cl` [Example 29, 3-Butyl-2-chloro-5-((2S)-azetidinylmethoxy)pyridine hydrochloride]: the Ki in data set [1] is 160 pM. Also, the “MED Hot plate model (μmol/kg, i.p.)” value in the data set on mice is on record as “NS”. Consider `C#Cc1cc(OC[C@@H]2CCN2)cnc1Cl` [Example 30, 2-Chloro-3-ethynyl-5-((2S)-azetidinylmethoxy)pyridine hydrochloride], for which the Ki in data set [1] worked out at 40 pM. Moreover, the minimal effective dose with mice amounted to 6.2 µmol/kg. `Fc1ncc(OC[C@@H]2CCN2)cc1Br` [Example 31, 5-((2S)-azetidinylmethoxy)-3-bromo-2-fluoropyridine dibenzoic acid salt]: the Ki in data set [1] is 30 pM. In the data set on mice, the minimal effective dose worked out at 6.2 µmol/kg. For `Cc1cc(OC[C@@H]2CCN2)cnc1F` [Example 32, 5-((2S)-azetidinylmethoxy)-3-methyl-2-fluoropyridine benzoate], the Ki in data set [1] was 100 pM. Also, the “MED Hot plate model (μmol/kg, i.p.)” value with mice is “NS”. Take `Cc1ncc(OC[C@@H]2CCN2)cc1Br` [Example 34, 5-Bromo-6-methyl-3-((2S)-azetidinylmethoxy)pyridine dihydrochloride]: the Ki in data set [1] was 20 pM. The minimal effective dose with mice worked out at 0.62 µmol/kg. On to `C=Cc1cc(OC[C@@H]2CCN2)cnc1C` [Example 35, 6-Methyl-5-vinyl-3-((2S)-azetidinylmethoxy)pyridine hydrochloride], for which the Ki in data set [1] is 220 pM. Also, the “MED Hot plate model (μmol/kg, i.p.)” value with mice was “NS”. Take `CCc1cc(OC[C@@H]2CCN2)cnc1C` [Example 36, 6-Ethyl-6-methyl-3-((2S)-azetidinylmethoxy)pyridine hydrochloride]: in data set [1], the Ki came out at 40 pM. In addition, the “MED Hot plate model (μmol/kg, i.p.)” value with mice is given as “NS”. With `COc1ccc(OC[C@H]2CCN2)cn1` [Example 119, 6-Methoxy-3-(2(R)-azetidinylmethoxy)pyridine], the melting point was in the range of 139 to 142 °C. Also, the Ki in data set [1] stood at 670 pM. Consider `Cl.O=[N+]([O-])c1cncc(OC[C@@H]2CCN2)c1` [Example 132, 5-nitro-3-(2-(S)-azetidinylmethoxy)pyridine hydrochloride], for which the melting point was 162 to 164 °C (dec.). Also, the Ki in data set [1] turned out to be 330 pM.
